Assay results as given in ChEMBL document CHEMBL3885861, “Open TG-GATES”.

Organism: Rattus norvegicus
Experiment: Open TG-GATES - Regimen: Daily Repeat
Format: toxicity, organism-based, Sprague-Dawley
Design: regimen Daily Repeat, gender Male, age 6 weeks
Conditions: in vivo, po, 50 mg/kg, route gavage, dose level Low; for APTT / Bas / Eos / Fbg / Hb / Ht / Lym / MCH / MCHC / MCV / Mono / Neu / PT / Plat / RBC / Ret / WBC: tissue Blood; for KIDNEY_L / KIDNEY_R / KIDNEY_TOTAL: tissue Kidney; for LIVER: tissue Liver; for A/G / ALP / ALT / AST / BUN / CRE / Ca / Cl / DBIL / GLC / IP / K / LDH / Na / PL / RALB / TBIL / TC / TG / TP / gamma-GTP: tissue Plasma

`CN1C(=O)CCS(=O)(=O)C1c1ccc(Cl)cc1` (configuration not stated) [CHLORMEZANONE] gave a TERMINAL_BW (72 h, time 3 day) of 226.8 g, an APTT (72 h, time 3 day) of 15.5 s and a Bas (72 h, time 3 day) of 0%. It also gave an Eos (72 h, time 3 day) of 1%, a Fbg (72 h, time 3 day) of 275.6 mg/dL and a Hb (72 h, time 3 day) of 13.5 g/dL. The Ht (72 h, time 3 day) was 40.1%, the Lym (72 h, time 3 day) was 75.2% and the MCH (72 h, time 3 day) was 22 pg. The MCHC (72 h, time 3 day) was 33.8%, the MCV (72 h, time 3 day) was 65.1 fL and the Mono (72 h, time 3 day) was 2.8%. For the same compound, the Neu (72 h, time 3 day) was 20.6%, the PT (72 h, time 3 day) was 12 s and the Plat (72 h, time 3 day) was 108.6 x10_4/uL. It also gave an RBC (72 h, time 3 day) of 616.2 x10_4/ul, a Ret (72 h, time 3 day) of 6.5% and a WBC (72 h, time 3 day) of 81.9 x10_2/uL. The KIDNEY_L (72 h, time 3 day) was 0.9 g, the KIDNEY_R (72 h, time 3 day) was 0.9 g and the KIDNEY_TOTAL (72 h, time 3 day) was 1.8 g. It also gave an LIVER (72 h, time 3 day) of 11.1 g, an A/G (72 h, time 3 day) of 0.9 and an ALP (72 h, time 3 day) of 1849 IU/L. For the same compound, the ALT (72 h, time 3 day) was 50.8 IU/L, the AST (72 h, time 3 day) was 75.8 IU/L and the BUN (72 h, time 3 day) was 15.6 mg/dL. The CRE (72 h, time 3 day) was 0.2 mg/dL, the Ca (72 h, time 3 day) was 11 mg/dL and the Cl (72 h, time 3 day) was 107.2 meq/L. It also gave a DBIL (72 h, time 3 day) of 0.012 mg/dL, a GLC (72 h, time 3 day) of 188.8 mg/dL and an IP (72 h, time 3 day) of 7.5 mg/dL. For the same compound, the K (72 h, time 3 day) was 4.3 meq/L, the LDH (72 h, time 3 day) was 64.8 IU/L and the Na (72 h, time 3 day) was 143.8 meq/L. For the same compound, the PL (72 h, time 3 day) was 136.4 mg/dL, the RALB (72 h, time 3 day) was 2.7 g/dL and the TBIL (72 h, time 3 day) was 0.024 mg/dL. The TC (72 h, time 3 day) was 78.4 mg/dL, the TG (72 h, time 3 day) was 73.2 mg/dL and the TP (72 h, time 3 day) was 5.8 g/dL. It also gave a gamma-GTP (72 h, time 3 day) of 1 IU/L, a TERMINAL_BW ([…], time 7 day) of 270.7 g and a TERMINAL_BW ([…], time 14 day) of 321.2 g. It also gave a TERMINAL_BW ([…], time 28 day) of 415.3 g, an APTT ([…], time 7 day) of 18.3 s and a Bas ([…], time 7 day) of 0%. The Eos ([…], time 7 day) was 0.8%, the Fbg ([…], time 7 day) was 275.8 mg/dL and the Hb ([…], time 7 day) was 13.2 g/dL. It also gave a Ht ([…], time 7 day) of 39.2%, a Lym ([…], time 7 day) of 79.2% and an MCH ([…], time 7 day) of 20.7 pg. The MCHC ([…], time 7 day) was 33.7%, the MCV ([…], time 7 day) was 61.4 fL and the Mono ([…], time 7 day) was 3%. For the same compound, the Neu ([…], time 7 day) was 16.2%, the PT ([…], time 7 day) was 11.8 s and the Plat ([…], time 7 day) was 118.3 x10_4/uL. It also gave an RBC ([…], time 7 day) of 639.2 x10_4/ul, a Ret ([…], time 7 day) of 6.4% and a WBC ([…], time 7 day) of 84.5 x10_2/uL. For the same compound, the APTT ([…], time 14 day) was 16.3 s, the Bas ([…], time 14 day) was 0% and the Eos ([…], time 14 day) was 0.8%. The Fbg ([…], time 14 day) was 282.2 mg/dL, the Hb ([…], time 14 day) was 14.6 g/dL and the Ht ([…], time 14 day) was 42.3%. It also gave a Lym ([…], time 14 day) of 83.4%, an MCH ([…], time 14 day) of 20.9 pg and an MCHC ([…], time 14 day) of 34.6%. It also gave an MCV ([…], time 14 day) of 60.3 fL, a Mono ([…], time 14 day) of 1.6% and a Neu ([…], time 14 day) of 13.6%. It also gave a PT ([…], time 14 day) of 11.7 s, a Plat ([…], time 14 day) of 118.8 x10_4/uL and an RBC ([…], time 14 day) of 700.4 x10_4/ul. It also gave a Ret ([…], time 14 day) of 4.7%, a WBC ([…], time 14 day) of 92.5 x10_2/uL and an APTT ([…], time 28 day) of 17.5 s. It also gave a Bas ([…], time 28 day) of 0%, an Eos ([…], time 28 day) of 1.2% and a Fbg ([…], time 28 day) of 274.6 mg/dL. It also gave a Hb ([…], time 28 day) of 15.1 g/dL, a Ht ([…], time 28 day) of 43% and a Lym ([…], time 28 day) of 77.6%. It also gave an MCH ([…], time 28 day) of 19.7 pg, an MCHC ([…], time 28 day) of 35.1% and an MCV ([…], time 28 day) of 56.2 fL. The Mono ([…], time 28 day) was 2.4%, the Neu ([…], time 28 day) was 18.6% and the PT ([…], time 28 day) was 11.7 s. It also gave a Plat ([…], time 28 day) of 106.6 x10_4/uL, an RBC ([…], time 28 day) of 765 x10_4/ul and a Ret ([…], time 28 day) of 2.5%. The WBC ([…], time 28 day) was 77 x10_2/uL, the KIDNEY_L ([…], time 7 day) was 1.1 g and the KIDNEY_R ([…], time 7 day) was 1.1 g. For the same compound, the KIDNEY_TOTAL ([…], time 7 day) was 2.1 g, the KIDNEY_L ([…], time 14 day) was 1.2 g and the KIDNEY_R ([…], time 14 day) was 1.2 g. For the same compound, the KIDNEY_TOTAL ([…], time 14 day) was 2.4 g, the KIDNEY_L ([…], time 28 day) was 1.3 g and the KIDNEY_R ([…], time 28 day) was 1.3 g. The KIDNEY_TOTAL ([…], time 28 day) was 2.7 g, the LIVER ([…], time 7 day) was 13.8 g and the LIVER ([…], time 14 day) was 16.1 g. The LIVER ([…], time 28 day) was 17.9 g, the A/G ([…], time 7 day) was 0.9 and the ALP ([…], time 7 day) was 1690.2 IU/L. The ALT ([…], time 7 day) was 50 IU/L, the AST ([…], time 7 day) was 68.4 IU/L and the BUN ([…], time 7 day) was 17.8 mg/dL. For the same compound, the CRE ([…], time 7 day) was 0.2 mg/dL, the Ca ([…], time 7 day) was 11.5 mg/dL and the Cl ([…], time 7 day) was 106.4 meq/L. It also gave a DBIL ([…], time 7 day) of 0.016 mg/dL, a GLC ([…], time 7 day) of 183.8 mg/dL and an IP ([…], time 7 day) of 7.2 mg/dL. It also gave a K ([…], time 7 day) of 4.4 meq/L, an LDH ([…], time 7 day) of 74.2 IU/L and a Na ([…], time 7 day) of 143.4 meq/L. The PL ([…], time 7 day) was 150.8 mg/dL, the RALB ([…], time 7 day) was 2.8 g/dL and the TBIL ([…], time 7 day) was 0.028 mg/dL. The TC ([…], time 7 day) was 84.2 mg/dL, the TG ([…], time 7 day) was 75.2 mg/dL and the TP ([…], time 7 day) was 6 g/dL. It also gave a gamma-GTP ([…], time 7 day) of 1 IU/L, an A/G ([…], time 14 day) of 0.9 and an ALP ([…], time 14 day) of 1402 IU/L. For the same compound, the ALT ([…], time 14 day) was 41 IU/L, the AST ([…], time 14 day) was 61 IU/L and the BUN ([…], time 14 day) was 14.2 mg/dL. The CRE ([…], time 14 day) was 0.2 mg/dL, the Ca ([…], time 14 day) was 11.3 mg/dL and the Cl ([…], time 14 day) was 106.8 meq/L. The DBIL ([…], time 14 day) was 0.008 mg/dL, the GLC ([…], time 14 day) was 180.4 mg/dL and the IP ([…], time 14 day) was 6.9 mg/dL. It also gave a K ([…], time 14 day) of 4.1 meq/L, an LDH ([…], time 14 day) of 65.8 IU/L and a Na ([…], time 14 day) of 143.6 meq/L. The PL ([…], time 14 day) was 140.8 mg/dL, the RALB ([…], time 14 day) was 2.8 g/dL and the TBIL ([…], time 14 day) was 0.056 mg/dL. It also gave a TC ([…], time 14 day) of 83 mg/dL, a TG ([…], time 14 day) of 87.6 mg/dL and a TP ([…], time 14 day) of 6.1 g/dL. For the same compound, the gamma-GTP ([…], time 14 day) was 1 IU/L, the A/G ([…], time 28 day) was 0.8 and the ALP ([…], time 28 day) was 1043 IU/L. The ALT ([…], time 28 day) was 40.6 IU/L, the AST ([…], time 28 day) was 60 IU/L and the BUN ([…], time 28 day) was 15.4 mg/dL. For the same compound, the CRE ([…], time 28 day) was 0.3 mg/dL, the Ca ([…], time 28 day) was 10.6 mg/dL and the Cl ([…], time 28 day) was 106.6 meq/L. For the same compound, the DBIL ([…], time 28 day) was 0.01 mg/dL, the GLC ([…], time 28 day) was 176.6 mg/dL and the IP ([…], time 28 day) was 5.8 mg/dL. It also gave a K ([…], time 28 day) of 4.2 meq/L, an LDH ([…], time 28 day) of 53 IU/L and a Na ([…], time 28 day) of 142.8 meq/L. It also gave a PL ([…], time 28 day) of 137.4 mg/dL, an RALB ([…], time 28 day) of 2.8 g/dL and a TBIL ([…], time 28 day) of 0.06 mg/dL. The TC ([…], time 28 day) was 71.2 mg/dL, the TG ([…], time 28 day) was 117 mg/dL and the TP ([…], time 28 day) was 6.3 g/dL. It also gave a gamma-GTP ([…], time 28 day) of 1 IU/L.
